Assays:
[1] = target: TGF-β signaling; experiment: MLEC luciferase assay (TGF-β activated luciferase, Bright-Glo); format: cell-based, mink; settings: purified compounds, 24 hours with TGF-β, read-out: IC50, inhibition of TGF-β (MLEC-based TGF-β inhibition assay)
Procedure: A total of 3840 fractions, plated on 12 384-well plates, were assayed in a high throughput screen at 10 μM final concentration. For purposes of concentration calculations we set the average molecular weight of each compound in the library at 500 Da. Each fraction had its different mass, therefore different volumes were used for each well in the screening. Z′ for the plates were between 0.53 and 0.45. Initial hits were identified as compounds that inhibited the Bright-Glo signal (see below MLEC assay) by more than 84%. Using this criteria, we identified 48 compounds of interest. The 48 initial hits were then re-screened in a 10 point dose response curve in duplicate. The compounds were assayed for both luciferase inhibition and toxicity using CellTiter-Glo (Promega). Of the 48 compounds identified in the HTS assay, 19 inhibited TGF-β activated luciferase activity without inducing mink lung cell toxicity. MLEC were plated into 384-well plates at a density of 5000 cells/well using Micro-flow (Biotek) multi well reagent dispenser and incubated overnight at 37° C. in the CO2 incubator. 1 μM control SB431542 or 10 μM of compounds 1-5 were added to the wells using the ECHO 550 (Labcyte), then added 10 μL media with […] TGF-β using Micro-flow and incubated for 24 hours at 37° C. 25 μL Bright-Glo (Promega) was added using Micro-flow, and agitated for 4 minutes. The Enspire (Perkin Elmer) plate reader was used to measure the TGF-β response in each well. The luciferase activity was reported as relative light units (RLU), and the readout of each tested fraction was then normalized against negative controls. Dose-response TGF-β data and cytotoxicity assays using fibroblasts were employed to more rigorously evaluate the 48 initial hits. […] Chemical analysis of the secondary metabolites in the active wells/extract fractions of WMMA2266 led to the discovery of five pyrimidinedione derivatives, biemamides A-E (1-5).

[2] = tested on: C. elegans; experiment: C. elegans assay (development and body length); format: in vivo; settings: three concentrations spanning 1 μM→100 μM
Procedure: Synchronized cultures of C. elegans were obtained using the following procedure: a mixed population of worms containing many gravid adults was washed off of two 10 cm NGM plates using distilled water. C. elegans were pelleted at 1000 g in a 15 mL conical tube and the supernatant was discarded. A mix of 3 mL distilled water, 1 mL bleach, and 1 mL 1 M NaOH was added. The tube was inverted for several minutes until it could be observed that the gravid adults had released their eggs. The eggs were pelleted at 1000 g, washed three times with distilled water and suspended in 10 mL of M9 (3.0 g KH2PO4, 6.0 g Na2HPO4, 0.5 g NaCl, 1.0 g NH4Cl into 1 L distilled water). The egg suspension was rotated overnight in a 50 mL conical tube during which the embryos hatched and arrested at the L1 stage. The C. elegans were washed twice and diluted with M9 to reach an approximate concentration of 20 worms/10 μL. Each well in a 96-well plate was prepared by adding 10 μL worm suspension, 0.5 μg OP50 E. coli, 1 μL DMSO (control) or 1 μL DMSO with compounds, and brought to a final volume of 100 μL with M9 plus cholesterol (5 μg/mL). The plates were incubated in a humidified box at 23° C. for 72 hours. To immobilize worms to measure body length the worms were killed by immersing the 96-well plate in a 70° C. water bath for several minutes. Each experiment was performed in triplicate within each plate. […]

[3] = tested on: NMuMG epithelial cells; experiment: TGF-β induced EMT in NMuMG cell line (imaging assay); format: cell-based, mouse; settings: 50 pM TGF-β, 72 h
Procedure: Mouse mammary epithelial cell line NMuMG was purchased from American Tissue Culture Collection (ATCC, Manassas, Va.), and NMuMG were cultured as per ATCC recommendations. Imaging assay: Cells were plated in glass bottomed 96 well imaging plates, at a density of 1,000 cells per well, and were allowed to attach overnight. Cells (with exception of 3 control wells) were treated with 50 pm TGF-β. Along with the TGF-β test compounds 1-5 were added in at various doses, and a set of wells was treated with a known TGF-β inhibitor SB431542 at 1 μM.
In the absence of TGF-β, NMuMG cells form an epithelial shape; incubation with 50 pM TGF-β for 72 h induces a more fibroblast-like, spindle shaped morphology indicative of mesenchymal cells (FIGS. 3A-3D). […] Nine concentrations (160-0.625 nM) of compounds 1-5 were tested for their ability to impact TGF-β signaling in NMuMG cells.

Molecule: Biemamide D [Compound 4]
- IC50 [1]: 0.102 µM

Molecule: NC(=O)c1ccc(-c2nc(-c3ccc4c(c3)OCO4)c(-c3ccccn3)[nH]2)cc1 [SB431542, reference compound]
- IC50 [1]: 0.411 µM
- C. elegans size [2]: did not alter C. elegans size
- inhibition of TGF-β-induced EMT (cell morphology), positive control ([3]; 1 μM): blocked TGF-β-induced transition of the NMuMG epithelial cells into mesenchymal cells

Molecule: Biemamide A [Compound 1]
- IC50 [1]: 0.0515 µM
- inhibition of TGF-β-induced EMT (cell morphology) ([3]; nine concentrations 160-0.625 nM (FIG. 3C: 160 nM compound 1)): cells maintained their epithelial phenotype

Molecule: Biemamide B [Compound 2]
- IC50 [1]: 0.0187 µM

Molecule: Biemamide C [Compound 3]
- IC50 [1]: 0.0515 µM

Molecule: Biemamide E [Compound 5]
- IC50 [1]: 0.0832 µM

— patent US10889551B2, “Biemamides and related scaffolds as inhibitors of transforming growth factor-beta signaling” (Wisconsin Alumni Research Foundation, priority 2018, dated 2021)
